Assay results taken from patent publication US9765092B2, “Tricyclic piperidine compounds” (ACTELION PHARMACEUTICALS LTD, priority 2013, dated 2017).

target: human TPH1 (Homo sapiens (Human), UniProt P17752); assay: Biochemical in vitro assay using fluorescence readout (TPH1 inhibition); conditions: full length human TPH1, 40 μM L-tryptophan, 15° C., 60 minutes, fluorescence at 540 nm; mean if determined several times
Sequence (P17752 whole entry): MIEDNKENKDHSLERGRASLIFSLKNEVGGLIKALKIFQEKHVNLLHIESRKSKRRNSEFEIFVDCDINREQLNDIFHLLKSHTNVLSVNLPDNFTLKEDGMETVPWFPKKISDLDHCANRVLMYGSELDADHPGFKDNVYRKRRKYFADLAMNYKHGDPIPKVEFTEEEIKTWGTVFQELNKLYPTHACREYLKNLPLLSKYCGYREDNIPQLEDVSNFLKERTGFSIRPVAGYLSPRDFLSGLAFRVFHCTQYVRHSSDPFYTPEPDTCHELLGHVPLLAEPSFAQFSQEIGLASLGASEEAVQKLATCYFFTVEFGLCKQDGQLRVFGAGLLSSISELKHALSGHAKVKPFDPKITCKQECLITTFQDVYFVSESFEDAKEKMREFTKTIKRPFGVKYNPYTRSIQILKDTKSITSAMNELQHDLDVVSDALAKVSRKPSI

Row | Compound | IC50
1 | COCCN(C)c1ccc(OCC(=O)N2CCc3nc4sc(C)nn4c3C2c2ccc(Cl)cc2F)c(Cl)n1 (stereo not drawn) [Example 1.4.14, 1-(5-(4-Chloro-2-fluorophenyl)-2-methyl-7,8-dihydro-[1,3,4]thiadiazolo[2′,3′:2,3]imidazo[4,5-c]pyridin-6(5H)-yl)-2-((2-chloro-6-((2-methoxyethyl)(methyl)-amino)pyridin-3-yl)oxy)ethanone] | 3 nM
2 | Cc1nn2c3c(nc2s1)CCN(C(=O)COc1ccc(N2CCOCC2)nc1Cl)C3c1csc(CN(C)C)c1 (stereo not drawn) [Example 1.69.1, 2-((2-Chloro-6-morpholinopyridin-3-yl)oxy)-1-(5-(5-((dimethylamino)-methyl)thiophen-3-yl)-2-methyl-7,8-dihydro-[1,3,4]thiadiazolo[2′,3′:2,3]imidazo[4,5-c]pyridin-6(5H)-yl)ethanone] | 51 nM
3 | Cc1nn2c3c(nc2s1)CCN(C(=O)COc1ccc(N2CC(F)(F)C2)cc1Cl)C3c1ccc(Cl)cc1F (stereo not drawn) [Example 1.4.29, 1-(5-(4-Chloro-2-fluorophenyl)-2-methyl-7,8-dihydro-[1,3,4]thiadiazolo[2′,3′:2,3]imidazo[4,5-c]pyridin-6(5H)-yl)-2-(2-chloro-4-(3,3-difluoroazetidin-1-yl)phe-noxy)ethanone] | 6 nM

same assay, conditions: human TPH1, fluorescence readout

Row | Compound | IC50
4 | Cc1nn2c3c(nc2s1)CCN(C(=O)COc1ccc(C(=O)N(C)C)nc1Cl)C3c1cc(F)ccc1F (stereo not drawn) [Example 1.57.1, 6-chloro-5-(2-(5-(2,5-difluorophenyl)-2-methyl-7,8-dihydro-[1,3,4]thiadiazolo[2′,3′:2,3]imidazo[4,5-c]pyridine-6(5H)-yl)-2-oxoethoxy)-N,N-dimethylpicolinamide] | 30 nM
5 | CCc1cc(Cl)ccc1OCC(=O)N1CCc2nc3sc(C)nn3c2C1c1ccc(C2CC2)cc1F (stereo not drawn) [Example 1.6.7, 2-(4-chloro-2-ethylphenoxy)-1-(5-(4-cyclopropyl-2-fluorophenyl)-2-methyl-7,8-dihydro-[1,3,4]thiadiazolo[2′,3′:2,3]imidazo[4,5-c]pyridin-6(5H)-yl)ethanone] | 7 nM
6 | O=C(COc1ccc(Cl)cc1Cl)N1CCc2nc3sccn3c2C1c1cc2cccnc2s1 (stereo not drawn) [Example 6.14.1, 2-(2,4-dichlorophenoxy)-1-(5-(thieno[2,3-b]pyridin-2-yl)-7,8-dihydrothiazolo[2′,3′:2,3]imidazo[4,5-c]pyridin-6(5H)-yl)ethanone] | 25 nM
7 | CCc1nn2c3c(nc2s1)CCN(C(=O)COc1ccc(C#N)cc1Cl)C3c1ccc(Cl)cc1F (stereo not drawn) [Example 3.1.2, 3-chloro-4-(2-(5-(4-chloro-2-fluorophenyl)-2-ethyl-7,8-dihydro-[1,3,4]thiadiazolo[2′,3′:2,3]imidazo[4,5-c]pyridin-6(5H)-yl)-2-oxoethoxy)benzonitrile] | 15 nM
8 | COC(=O)c1ccc(OCC(=O)N2CCc3nc4sc(C)nn4c3C2c2ccc(Cl)cc2F)c(Cl)n1 (stereo not drawn) [Example 1.4.8, Methyl 6-chloro-5-(2-(5-(4-chloro-2-fluorophenyl)-2-methyl-7,8-dihydro-[1,3,4]thiadiazolo[2′,3′:2,3]imidazo[4,5-c]pyridin-6(5H)-yl)-2-oxoethoxy)picolinate] | 32 nM
9 | Cc1nn2c3c(nc2s1)CCN(C(=O)COc1ccc(S(N)(=O)=O)cc1C)C3c1ccc(C2CC2)cc1F (stereo not drawn) [Example 1.6.14, 4-(2-(5-(4-cyclopropyl-2-fluorophenyl)-2-methyl-7,8-dihydro-[1,3,4]thiadiazolo[2′,3′:2,3]imidazo[4,5-c]pyridin-6(5H)-yl)-2-oxoethoxy)-3-methylbenzenesulfonamide] | 45 nM
10 | O=C(COc1ccc(NS(=O)(=O)C2CC2)nc1Cl)N1CCc2nc3sccn3c2C1c1sccc1F (stereo not drawn) [Example 6.8.1, N-(6-chloro-5-(2-(5-(3-fluorothiophen-2-yl)-7,8-dihydro-thiazolo[2′,3′:2,3]imidazo[4,5-c]pyridin-6(5H)-yl)-2-oxoethoxy)pyridin-2-yl)cyclopropanesulfonamide] | 15 nM
11 | CNC(=O)c1cc(F)c(C2c3c(nc4sc(C)nn34)CCN2C(=O)COc2ccc(NS(C)(=O)=O)nc2Cl)s1 (stereo not drawn) [Example 1.25.7, 5-(6-(2-((2-chloro-6-(methylsulfonamido)pyridin-3-yl)oxy)acetyl)-2-methyl-5,6,7,8-tetrahydro-[1,3,4]thiadiazolo [2′,3′:2,3]imidazo[4,5-c]pyridin-5-yl)-4-fluoro-N-methylthiophene-2-carboxamide] | 7 nM
12 | COC1(c2csc(C3c4c(nc5sc(C)nn45)CCN3C(=O)COc3ccc(N4CCOCC4)nc3Cl)c2)COC1 (stereo not drawn) [Example 1.50.1, 2-((2-chloro-6-morpholinopyridin-3-yl)oxy)-1-(5-(4-(3-methoxyoxetan-3-yl)thiophen-2-yl)-2-methyl-7,8-dihydro-[1,3,4]thiadiazolo[2′,3′:2,3]imidazo[4,5-c]pyridin-6(5H)-yl)ethanone] | 6 nM
13 | Cc1nn2c3c(nc2s1)CCN(C(=O)COc1ccc(F)cc1Cl)C3c1ccc(C2CC2)cc1F (stereo not drawn) [Example 1.6.2, 2-(2-chloro-4-fluorophenoxy)-1-(5-(4-cyclopropyl-2-fluorophenyl)-2-methyl-7,8-dihydro-[1,3,4]thiadiazolo [2′,3′:2,3]imidazo[4,5-c]pyridin-6(5H)-yl)ethanone] | 10 nM
14 | Cc1nn2c3c(nc2s1)CCN(C(=O)COc1ccc(C(=O)N(C)C)nc1Cl)[C@H]3c1sc(C(=O)N(C)C)cc1F [Example 1.24.11] | 4 nM
15 | COC(=O)c1csc(C2c3c(nc4sc(C)nn34)CCN2C(=O)COc2ccc(N3CCOCC3)nc2Cl)c1 (stereo not drawn) [Example 1.21.1, Methyl 5-(6-(2-((2-chloro-6-morpholinopyridin-3-yl)oxy)acetyl)-2-methyl-5,6,7,8-tetrahydro-[1,3,4]thiadiazolo[2′,3′:2,3]imidazo[4,5-c]pyridin-5-yl)thiophene-3-carboxylate] | 5 nM
16 | O=C(COc1cccc(C(F)(F)F)c1Cl)N1CCc2nc3sccn3c2C1c1cnn(-c2ccccc2)c1 (stereo not drawn) [Example 6.13.1, 2-(2-chloro-3-(trifluoromethyl)phenoxy)-1-(5-(1-phenyl-1H-pyrazol-4-yl)-7,8-dihydrothiazolo[2′,3′:2,3]-imidazo[4,5-c]pyridin-6(5H)-yl)ethanone] | 75 nM
17 | CNS(=O)(=O)Nc1ccc(OCC(=O)N2CCc3nc4sc(C)nn4c3C2c2ccc(Cl)cc2F)c(Cl)n1 (stereo not drawn) [Example 1.4.52, N-(6-chloro-5-(2-(5-(4-chloro-2-fluorophenyl)-2-methyl-7,8-dihydro-[1,3,4]thiadiazolo[2′,3′:2,3]imidazo[4,5-c]pyridin-6(5H)-yl)-2-oxoethoxy)pyridin-2-yl)-N′-methyl-sulfamide] | 38 nM
18 | CCc1nc(N2CCCS2(=O)=O)ccc1OCC(=O)N1CCc2nc3sc(C(F)(F)F)nn3c2C1c1sc(C)nc1C (stereo not drawn) [Example 5.4.1, 1-(5-(2,4-dimethylthiazol-5-yl)-2-(trifluoromethyl)-7,8-dihydro-[1,3,4]thiadiazolo[2′,3′:2,3]imidazo[4,5-c]pyridin-6(5H)-yl)-2-((6-(1,1-dioxidoisothiazolidin-2-yl)-2-ethylpyridin-3-yl)oxy)ethanone] | 25 nM
19 | Cc1nn2c3c(nc2s1)CCN(C(=O)COc1ccc(C2(N(C)C)CC2)nc1Cl)C3c1ccc(Cl)cc1F (stereo not drawn) [Example 1.4.44, 1-(5-(4-chloro-2-fluorophenyl)-2-methyl-7,8-dihydro-[1,3,4]thiadiazolo[2′,3′:2,3]imidazo[4,5-c]pyridin-6(5H)-yl)-2-((2-chloro-6-(1-(dimethylamino)cyclopropyl)pyridin-3-yl)oxy)ethanone] | 51 nM
20 | O=C(COc1ccc(-c2ncco2)nc1Cl)N1CCc2nc3scnn3c2C1c1ccc(Cl)cc1F (stereo not drawn) [Example 2.1.3] | 8 nM
21 | CCc1nc(C)ccc1OCC(=O)N1CCc2nc3sccn3c2C1c1c(C)nn(C)c1C (stereo not drawn) [Example 6.15.1, ((2-ethyl-6-methylpyridin-3-yl)oxy)-1-(5-(1,3,5-trimethyl-1H-pyrazol-4-yl)-7,8-dihydrothiazolo-[2′,3′:2,3]imidazo[4,5-c]pyridin-6(5H)-yl)ethanone] | 149 nM
22 | Cc1nc(C)c(C2c3c(nc4sc(C)nn34)CCN2C(=O)COc2ccc(N3CCCS3(=O)=O)nc2Cl)s1 (stereo not drawn) [Example 1.68.5, 2-((2-chloro-6-(1,1-dioxidoisothiazolidin-2-yl)pyridin-3-yl)oxy)-1-(5-(2,4-dimethylthiazol-5-yl)-2-methyl-7,8-dihydro-[1,3,4]thiadiazolo[2′,3′:2,3]imidazo[4,5-c]pyridin-6(5H)-yl)ethanone] | 5 nM
23 | Cc1ccc(Cl)c(OCC(=O)N2CCc3nc4sccn4c3C2c2cc3cccnc3s2)c1 (stereo not drawn) [Example 6.14.5, 2-(2-chloro-5-methylphenoxy)-1-(5-(thieno[2,3-b]-pyridin-2-yl)-7,8-dihydrothiazolo[2′,3′:2,3]imidazo[4,5-c]pyridin-6(5H)-yl)ethanone] | 43 nM
24 | O=C(COc1ccc(Cl)cc1Cl)N1CCc2nc3sccn3c2C1c1cnn(-c2ccccc2)c1 (stereo not drawn) [Example 6.13.2, 2-(2,4-dichlorophenoxy)-1-(5-(1-phenyl-1H-pyrazol-4-yl)-7,8-dihydrothiazolo[2′,3′:2,3]imidazo[4,5-c]pyridin-6(5H)-yl)ethanone] | 50 nM
25 | CCc1nc(NS(C)(=O)=O)ccc1OCC(=O)N1CCc2nc3sc(C)nn3c2C1c1cc(F)c(C)cc1F (stereo not drawn) [Example 1.74.1, N-(5-(2-(5-(2,5-difluoro-4-methylphenyl)-2-methyl-7,8-dihydro-[1,3,4]thiadiazolo[2′,3′:2,3]imidazo[4,5-c]pyridin-6(5H)-yl)-2-oxoethoxy)-6-ethylpyridin-2-yl)methanesulfonamide] | 25 nM
26 | Cc1nn2c3c(nc2s1)CCN(C(=O)COc1ccc(C(=O)N(C)C)nc1Cl)C3c1sccc1F (stereo not drawn) [Example 1.23.6, 6-chloro-5-(2-(5-(3-fluorothiophen-2-yl)-2-methyl-7,8-dihydro-[1,3,4]thiadiazolo[2′,3′:2,3]imidazo[4,5-c]pyridin-6(5H)-yl)-2-oxoethoxy)-N,N-dimethylpicolinamide] | 5 nM
27 | Cc1nn2c3c(nc2s1)CCN(C(=O)COc1ccnc2c(F)ccc(F)c12)C3c1ccc(Cl)cc1F (stereo not drawn) [Example 1.4.65, 1-(5-(4-chloro-2-fluorophenyl)-2-methyl-7,8-dihydro-[1,3,4]thiadiazolo[2′,3′:2,3]imidazo[4,5-c]pyridin-6(5H)-yl)-2-((5,8-difluoroquinolin-4-yl)oxy)ethan-1-one] | 31 nM
